Columns and labels:
JNK MAPK = experiment: Phosphorylation of JNK MAPK in LPS-activated BV-2 microglia cells (western blot); assay type: cell-based, mouse; conditions: LPS-induced, vehicle group 5.5±0.3 fold
Experimental: (§1) BV-2 cells (i.e., a mouse microglial cell line) were cultured in DMEM at a concentration of 2×10^5 cells per mL of the DMEM at 37° C. with 5% CO2 for 16 hours, wherein the DMEM was supplemented with deactivated fetal bovine serum (FBS, 10%), penicillin G (100 units/ml)/streptomycin (100 μg/ml), L-glutamine (3.65 mM), 4-(2-hydroxyethyl)-1-piperazineethanesulfonic acid (HEPES, 18 mM) and NaHCO3 (23.57 mM). […] Then, BV-2 cells were activated by being treated with lipopolysaccharide (LPS, 150 ng/ml) for 24 hours. BV-2 cells were lysed by a cell lysis buffer and centrifuged.

COX-2 = COX-2 expression in LPS-activated BV-2 microglia cells (western blot); assay type: cell-based, mouse; conditions: for relative expression rate of COX-2, fold of that of the control group: LPS 150 ng/ml 24 hours, vehicle group 8.34±0.05-fold; for inhibition ratio of COX-2 expression: LPS 150 ng/ml
Experimental: as §1

ICH mouse model [1] = experiment: Brain water content in collagenase-induced ICH mouse model; assay type: in vivo; conditions: ipsilateral hemisphere, 48 hours after ICH; 30 mg/kg orally at 30 minutes post-collagenase; ICH group 81.2±0.3%, NS group 78.7±0.1
Experimental: Male C57B2/6J mice (each weighs about 23 to 28 g) were anesthetized with chloral hydrate (400 mg/kg), and then a 1 mm burr hole was drilled 2 mm lateral to the midline and 0.3 mm anterior to the bregma of each mouse. Type VII-S collagenase (0.02 unit dissolved in 1 μl saline) was infused into the area of the caudate/putamen at a rate of 0.2 μl/min for 5 minutes. After an additional period of 5 minutes, the burr hole was occluded. The mice were allowed to recover with a controlled heating lamp and a controlled heating pad (37° C.) and an ICH mouse model was obtained, hereinafter referred to as “ICH group.” Additionally, a pseudo-animal that was handled with the same mode but only infused with an equal volume of normal saline (NS) was obtained, hereinafter referred to as “NS group.” […]
After wet weights of the brain tissues of ipsilateral hemisphere and contralateral hemisphere of the “NS group,” “ICH group” and “ICH+ergostatrien-3β-ol group”) mice were measured, the brain tissues of the ipsilateral hemisphere and contralateral hemisphere were dried at 100° C. for 24 hours to obtain the dry weights. The brain water content was calculated by the following formula: (wet weight−dry weight)/wet weight×100%.

MMP-9 = experiment: MMP-9-mediated gelatinolysis in astrocytes induced by LPS or thrombin (zymographic analysis); assay type: cell-based, rat
Excerpt: It has been known that the MMP-9-mediated gelatinolysis in astrocytes can be induced by LPS in a concentration dependent manner. The preparation and culture of astrocytes can be seen in “Preparation of separate astroglial and oligodendroglial cell cultures from rat cerebral tissue. J. Cell Biol. 85:890-902 (1980)” and “A potent antioxidant, lycopene, affords neuroprotection against microglia activation and focal cerebral ischemia in rats. In Vivo. 18:351-356 (2004)”, which are entirely incorporated hereinto by reference.
Astrocytes were respectively treated with vehicle (i.e., 0.2% ethanol) or ergostatrien-3β-ol (1, 5 and 10 μM) for 15 minutes, and then induced by LPS (500 ng/ml) or thrombin (10 units/ml) for 24 hours to induce the activation of MMP-9 in the astrocytes.

ICH mouse model [2] = experiment: Neurobehavioral test in collagenase-induced ICH mouse model; assay type: in vivo; conditions: 48 hours after ICH; 30 mg/kg orally; minimum 3, maximum 18; ICH group 9.6±1.2
Experimental: Male C57B2/6J mice (each weighs about 23 to 28 g) were anesthetized with chloral hydrate (400 mg/kg), and then a 1 mm burr hole was drilled 2 mm lateral to the midline and 0.3 mm anterior to the bregma of each mouse. Type VII-S collagenase (0.02 unit dissolved in 1 μl saline) was infused into the area of the caudate/putamen at a rate of 0.2 μl/min for 5 minutes. After an additional period of 5 minutes, the burr hole was occluded. The mice were allowed to recover with a controlled heating lamp and a controlled heating pad (37° C.) and an ICH mouse model was obtained, hereinafter referred to as “ICH group.” Additionally, a pseudo-animal that was handled with the same mode but only infused with an equal volume of normal saline (NS) was obtained, hereinafter referred to as “NS group.”
At 30 minutes post-collagenase injection, ergostatrien-3β-ol suspended in a 0.5% (w/v) vehicle (e.g., carboxymethyl cellulose (CMC)) was orally administered to the mouse at a dosage of 30 mg/kg. […]
At 48 hours after ICH was induced by collagenase, three groups of mice mentioned in Example 4 (i.e., the “NS group,” “ICH group” and “ICH+ergostatrien-3β-ol group”) were analyzed by a neurobehavioral test, which includes six tests for spontaneous activity, symmetry in the movement of four limbs, forepaw outstretching, climbing, body proprioception, and response to vibrissae touch. […]

## CC(C)[C@@H](C)/C=C/[C@@H](C)C1CCC2C3=CCC4C[C@@H](O)CC[C@]4(C)C3=CC[C@@]21C (stereo partly shown)
JNK MAPK; 0.5 μM pre-treatment
  phosphorylation level of JNK MAPK, fold of that of the control group: 5.5±0.9 fold
JNK MAPK; 1 μM pre-treatment
  phosphorylation level of JNK MAPK, fold of that of the control group: 3.9±0.2 fold
JNK MAPK; 5 μM pre-treatment
  phosphorylation level of JNK MAPK, fold of that of the control group: 3.5±0.6 fold
JNK MAPK; 10 μM pre-treatment
  phosphorylation level of JNK MAPK, fold of that of the control group: 2.4±0.3 fold
COX-2; 0.5 μM pre-treatment 15 minutes
  relative expression rate of COX-2, fold of that of the control group: 4.80±0.75 fold
COX-2; 0.5 μM
  inhibition ratio of COX-2 expression: 74%
COX-2; 1 μM pre-treatment 15 minutes
  relative expression rate of COX-2, fold of that of the control group: 3.91±0.64 fold
COX-2; 1 μM
  inhibition ratio of COX-2 expression: 94%
COX-2; 5 μM pre-treatment 15 minutes
  relative expression rate of COX-2, fold of that of the control group: 1.92±0.98 fold
COX-2; 5 μM
  inhibition ratio of COX-2 expression: 98%
COX-2; 10 μM pre-treatment 15 minutes
  relative expression rate of COX-2, fold of that of the control group: 2.14±0.86 fold
COX-2; 10 μM
  inhibition ratio of COX-2 expression: 106%
ICH mouse model [1]
  brain water content: 80.4±0.3%
MMP-9; LPS 500 ng/ml 24 hours, first of three values, 1 μM per b67 (b68 lists 0.5, 1, 5 or 10 μM), vehicle group 3.3±0.4-fold
  MMP-9-mediated gelatinolysis, fold of that of the control group: 2.9±0.3 fold
MMP-9; LPS 500 ng/ml 24 hours, second of three values, 5 μM, vehicle group 3.3±0.4-fold
  MMP-9-mediated gelatinolysis, fold of that of the control group: 2.5±0.3 fold
MMP-9; LPS 500 ng/ml 24 hours, third of three values, 10 μM, vehicle group 3.3±0.4-fold
  MMP-9-mediated gelatinolysis, fold of that of the control group: 2.1±0.3 fold
MMP-9; thrombin 10 units/ml 24 hours, 5 μM, vehicle group 5.5±0.4-fold
  MMP-9-mediated gelatinolysis, fold of that of the control group: 5.1±0.4 fold
MMP-9; thrombin 10 units/ml 24 hours, 10 μM, vehicle group 5.5±0.4-fold
  MMP-9-mediated gelatinolysis, fold of that of the control group: 3.3±0.8 fold
ICH mouse model [2]
  neurobehavioral score: 13.4±1.1

Source: patent publication US20160151389A1 (priority 2014, published 2016)
